Data as given in ChEMBL document CHEMBL1141345, “Bacillamides from a hypersaline microbial mat bacterium” (J Nat Prod, 2007).
Activity calls are given as the source filed them.

Experiments:
Staphylococcus aureus [1] = assay: Growth inhibition of methicillin-resistant Staphylococcus aureus; format: functional, organism-based
Staphylococcus aureus [2] = assay: Reduction of alpha-toxin secretion in biofilm-forming methicillin-resistant Staphylococcus aureus at <150 uM; format: functional, organism-based
Bacillus endophyticus = assay: Antimicrobial activity against Bacillus endophyticus SP31 isolate at <500 uM by broth dilution assay; format: functional; conditions: Priestia endophytica

Measured: Activity

CC(=O)N[C@H](C)c1nc(C(=O)NCCc2c[nH]c3ccccc23)cs1
inactive: Staphylococcus aureus [1] | Staphylococcus aureus [2] | Bacillus endophyticus

C[C@@H](O)c1nc(C(=O)NCCc2c[nH]c3ccccc23)cs1
inactive: Staphylococcus aureus [1] | Staphylococcus aureus [2] | Bacillus endophyticus

CC(=O)c1nc(C(=O)NCCc2c[nH]c3ccccc23)cs1
inactive: Staphylococcus aureus [1] | Staphylococcus aureus [2] | Bacillus endophyticus
